{"source": "patent US11634404B2", "about": "(priority 2016, dated 2023)", "key": {"[1]": {"target": "T1, D3R (Homo sapiens (Human), UniProt P35462)", "T1 sequence (P35462 whole entry)": "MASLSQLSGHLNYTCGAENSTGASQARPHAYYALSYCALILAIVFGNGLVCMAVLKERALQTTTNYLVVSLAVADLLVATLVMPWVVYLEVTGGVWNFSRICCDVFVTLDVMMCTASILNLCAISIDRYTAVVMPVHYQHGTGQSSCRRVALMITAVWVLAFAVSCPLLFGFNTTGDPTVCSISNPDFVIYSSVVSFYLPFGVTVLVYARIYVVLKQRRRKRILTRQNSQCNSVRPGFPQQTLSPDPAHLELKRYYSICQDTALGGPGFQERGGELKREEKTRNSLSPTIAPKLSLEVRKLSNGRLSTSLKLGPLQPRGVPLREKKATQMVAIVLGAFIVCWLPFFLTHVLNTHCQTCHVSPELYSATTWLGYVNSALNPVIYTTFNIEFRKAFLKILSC", "experiment": "BRET arrestin recruitment assay", "assay_type": "cell-based", "conditions": "orthogonal assay"}, "[2]": {"target": "D3R Y365A (Homo sapiens (Human), UniProt P35462, Y365A)", "sequence (P35462 whole entry Y365A)": "as the sequence (P35462 whole entry) above, with Y365A counted along it", "experiment": "arrestin BRET assay, mutagenesis", "assay_type": "cell-based", "conditions": "Y365A mutation", "method": "(§1) BRET arrestin recruitment assay. As an orthogonal test using an unrelated assay of D3R-mediated β-arrestin recruitment, an arrestin BRET assay was conducted.\n(§2) […]. […] […]. The Y365A mutation had more dramatic effects. […]."}, "[3]": {"target": "D3R Y198A (Homo sapiens (Human), UniProt P35462, Y198A)", "sequence (P35462 whole entry Y198A)": "as the sequence (P35462 whole entry) above, with Y198A counted along it", "experiment": "arrestin BRET assay, mutagenesis", "assay_type": "cell-based", "method": "as §1, §2"}, "[4]": {"system": "HepG2 cells", "experiment": "Cytotoxicity screening panel, High Content Screening", "assay_type": "cell-based", "method": "(§3) HepG2 cells were plated on 384-well tissue culture treated black walled clear bottomed polystyrene plates. The cells were dosed with test compound at a range of concentrations. At the end of the incubation period, the cells were loaded with the relevant dye/antibody for each cell health marker. The plates were then scanned using an automated fluorescent cellular imager, ArrayScan® (Thermo Scientific Cellomics). Cytotoxicity was assessed using a multi-parametric approach using High Content Screening (HCS). The following parameters were screened.\n(§4) Nuclear size: An increase in nuclear area can indicate necrosis or G2 cell cycle arrest and a decrease can indicate apoptosis.\n(§5) DNA structure: An increase in DNA structure can indicate chromosomal instability and DNA fragmentation.\n(§6) Cell membrane permeability: An increase in cell membrane permeability is a general indicator of cell death.\n(§7) Mitochondrial mass: A decrease in mitochondrial mass indicates loss of total mitochondria and an increase implies mitochondrial swelling or an adaptive response to cellular energy demands.\n(§8) Mitochondrial membrane potential (Δψm): A decrease indicates a loss of mitochondrial membrane potential and mitochondrial toxicity, as well as a potential role in apoptosis signaling, an increase in mitochondrial membrane potential indicates an adaptive response to cellular energy demands.\n(§9) Cytochrome c: An increase in cytochrome c release is one of the hallmarks of the apoptosis cascade."}, "[5]": {"experiment": "Cytotoxicity screening panel, High Content Screening", "assay_type": "cell-based", "conditions": "human, HepG2 cells; Mitochondrial Membrane Potential, response direction ↓", "method": "as §3, §4, §5, §6, §7, §8, §9"}, "[6]": {"target": "panel of 168 GPCRs (Homo sapiens, UniProt Q9H3N8)", "assay_type": "cell-based", "conditions": "GPCR HRH4; agonist, 10 μM"}, "[7]": {"target": "panel of 168 GPCRs (Homo sapiens, UniProt Q5NUL3)", "assay_type": "cell-based", "conditions": "GPCR GPR120; agonist, 10 μM"}, "[8]": {"target": "panel of 168 GPCRs (Homo sapiens, UniProt Q8TDV5)", "assay_type": "cell-based", "conditions": "GPCR GPR119; agonist, 10 μM"}, "[9]": {"target": "panel of 168 GPCRs (Homo sapiens, UniProt P48146)", "assay_type": "cell-based", "conditions": "GPCR NPBWR2; agonist, 10 μM"}, "[10]": {"target": "panel of 168 GPCRs (Homo sapiens, UniProt P46663)", "assay_type": "cell-based", "conditions": "GPCR BDKRB1; agonist, 10 μM"}, "[11]": {"target": "panel of 168 GPCRs (Homo sapiens, UniProt P35372)", "assay_type": "cell-based", "conditions": "GPCR OPRM1; agonist, 10 μM"}, "[12]": {"target": "panel of 168 GPCRs (Homo sapiens, UniProt P35367)", "assay_type": "cell-based", "conditions": "GPCR HRH1; agonist, 10 μM"}, "[13]": {"target": "panel of 168 GPCRs (Homo sapiens, UniProt P08912)", "assay_type": "cell-based", "conditions": "GPCR CHRM5; agonist, 10 μM"}, "[14]": {"target": "panel of 168 GPCRs (Homo sapiens, UniProt P25025)", "assay_type": "cell-based", "conditions": "GPCR CXCR2; agonist, 10 μM"}, "[15]": {"target": "panel of 168 GPCRs (Homo sapiens, UniProt O00574)", "assay_type": "cell-based", "conditions": "GPCR CXCR6; agonist, 10 μM"}, "[16]": {"target": "T1, D3R", "experiment": "Go BRET activation assay", "assay_type": "cell-based", "conditions": "orthogonal assay"}, "[17]": {"target": "D3 DAR (Homo sapiens (Human), UniProt P35462)", "sequence (P35462 whole entry)": "as the sequence (P35462 whole entry) above", "assay_type": "cell-based", "conditions": "β-arrestin recruitment, agonist"}, "[18]": {"target": "5HT2B receptor (Homo sapiens (Human), UniProt P41595)", "sequence (P41595 whole entry)": "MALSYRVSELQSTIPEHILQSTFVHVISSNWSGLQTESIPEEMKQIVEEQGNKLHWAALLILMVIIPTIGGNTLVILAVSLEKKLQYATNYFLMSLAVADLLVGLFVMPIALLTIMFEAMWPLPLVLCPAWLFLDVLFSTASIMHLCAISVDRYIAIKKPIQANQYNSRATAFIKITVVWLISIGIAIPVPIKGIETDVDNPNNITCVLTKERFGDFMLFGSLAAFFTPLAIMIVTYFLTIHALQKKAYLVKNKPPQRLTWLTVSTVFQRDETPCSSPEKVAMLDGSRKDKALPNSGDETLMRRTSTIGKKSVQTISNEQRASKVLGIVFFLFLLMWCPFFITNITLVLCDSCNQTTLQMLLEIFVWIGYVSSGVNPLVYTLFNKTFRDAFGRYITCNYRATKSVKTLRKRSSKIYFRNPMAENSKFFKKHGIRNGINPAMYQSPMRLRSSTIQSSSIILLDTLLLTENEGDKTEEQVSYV", "experiment": "HTRF IP1 accumulation assay (Eurofins Cerep)", "assay_type": "cell-based"}, "[19]": {"system": "TA100", "experiment": "Ames reverse mutation assay", "assay_type": "cell-based", "conditions": "highest conc. tested 2,000 μg/ml", "method": "(§10) […]. The cultures were then diluted into an indicator medium lacking histidine, dispensed into a 384-well plate, and incubated for 48 h at 37° C. Cells that have undergone a reversion will grow, resulting in a color change. The number of wells showing growth were counted and compared to the vehicle control. […]. Data were analyzed using an unpaired, one-sided Student's T-test. Where indicated, S9 fraction from the livers of Aroclor 1254-treated rats were included in the incubation at a 4.5% final concentration. An NADPH-regenerating system was also included to ensure a steady supply of reducing equivalents."}, "[20]": {"system": "TA98", "experiment": "Ames reverse mutation assay", "assay_type": "cell-based", "conditions": "highest conc. tested 2,000 μg/ml", "method": "as §10"}, "[21]": {"system": "receptors, transporters and some ion channels", "experiment": "PDSP primary radioligand binding panel", "conditions": "10 μM, >50% inhibition considered significant", "description": "[…]. […] […]. […] […]."}, "[22]": {"target": "D2 DAR (Homo sapiens (Human), UniProt P14416)", "sequence (P14416 whole entry)": "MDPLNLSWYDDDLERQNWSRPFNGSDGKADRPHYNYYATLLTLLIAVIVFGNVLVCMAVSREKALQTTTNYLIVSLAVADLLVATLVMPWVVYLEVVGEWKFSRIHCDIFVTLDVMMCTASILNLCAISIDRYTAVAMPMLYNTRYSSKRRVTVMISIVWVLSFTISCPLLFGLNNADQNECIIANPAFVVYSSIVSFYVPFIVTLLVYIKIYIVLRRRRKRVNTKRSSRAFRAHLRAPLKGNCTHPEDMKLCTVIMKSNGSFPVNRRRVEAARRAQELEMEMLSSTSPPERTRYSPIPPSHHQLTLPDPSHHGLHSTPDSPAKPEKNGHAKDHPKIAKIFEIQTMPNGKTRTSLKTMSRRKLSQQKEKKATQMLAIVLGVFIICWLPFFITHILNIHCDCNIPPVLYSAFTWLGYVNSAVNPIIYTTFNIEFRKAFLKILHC", "assay_type": "cell-based", "conditions": "β-arrestin recruitment, agonist; 'curve' = wrapped cell 'curve interrupted'"}, "[23]": {"target": "T1, D3R", "experiment": "ERK1/2 Phosphorylation assay", "assay_type": "cell-based", "conditions": "orthogonal assay"}, "[24]": {"conditions": "Cell Membrane Permeability, response direction ↑"}, "[25]": {"conditions": "Cytochrome c, response direction ↑"}, "[26]": {"conditions": "DNA Structure, response direction ↑"}, "[27]": {"conditions": "Mitochondrial Mass, response direction ↑"}, "[28]": {"conditions": "Nuclear Size, response direction ↑"}}, "data": [{"compound": "COc1ccc(OCCN2CCN(C(=O)c3cc4ccccc4[nH]3)CC2)cc1", "note": "[Compound 1, (1H-indol-2-yl)(4-(2-(4-methoxyphenoxy)ethyl)piperazin-1-yl)methanone]", "values": [{"measurement": "agonist activity, β-arrestin recruitment (BRET)", "setting": "[1]", "value": "potent and fully efficacious D3R-selective agonist"}, {"measurement": "efficacy, % that of dopamine", "setting": "[2]", "value": 210, "unit": "%"}, {"measurement": "potency reduction", "setting": "[2]", "value": 440, "unit": "fold"}, {"measurement": "effect of mutation on potency", "setting": "[3]", "value": "minimal effects on the potency"}, {"measurement": "signaling efficacy, % that of dopamine", "setting": "[3]; Y198A mutation", "value": 36, "unit": "%"}, {"measurement": "AC50", "setting": "[4]; [24]", "value": "> 50", "unit": "µM"}, {"measurement": "MEC", "setting": "[4]; [24]", "value": 8.58, "unit": "µM"}, {"measurement": "AC50", "setting": "[4]; [25]", "value": "> 50", "unit": "µM"}, {"measurement": "MEC", "setting": "[4]; [25]", "value": 6.03, "unit": "µM"}, {"measurement": "AC50", "setting": "[4]; [26]", "value": "> 50", "unit": "µM"}, {"measurement": "MEC", "setting": "[4]; [26]", "value": 13.9, "unit": "µM"}, {"measurement": "AC50", "setting": "[4]; [27]", "value": "> 50", "unit": "µM"}, {"measurement": "MEC", "setting": "[4]; [27]", "value": 11.9, "unit": "µM"}, {"measurement": "MEC", "setting": "[4]; Mitochondrial Membrane Potential, response direction ↓", "value": 9.28, "unit": "µM"}, {"measurement": "AC50", "setting": "[4]; [28]", "value": "> 50", "unit": "µM"}, {"measurement": "MEC", "setting": "[4]; [28]", "value": 12.0, "unit": "µM"}, {"measurement": "AC50", "setting": "[5]", "value": "> 50", "unit": "µM"}, {"measurement": "β-Arrestin Recruitment activity", "setting": "[6]", "value": 8, "unit": "%"}, {"measurement": "β-Arrestin Recruitment activity", "setting": "[7]", "value": 12, "unit": "%"}, {"measurement": "β-Arrestin Recruitment activity", "setting": "[8]", "value": 16, "unit": "%"}, {"measurement": "β-Arrestin Recruitment activity", "setting": "[9]", "value": 3, "unit": "%"}, {"measurement": "β-Arrestin Recruitment activity", "setting": "[10]", "value": 0, "unit": "%"}, {"measurement": "β-Arrestin Recruitment activity", "setting": "[11]", "value": 0, "unit": "%"}, {"measurement": "β-Arrestin Recruitment activity", "setting": "[12]", "value": 0, "unit": "%"}, {"measurement": "β-Arrestin Recruitment activity", "setting": "[13]", "value": 3, "unit": "%"}, {"measurement": "β-Arrestin Recruitment activity", "setting": "[14]", "value": 6, "unit": "%"}, {"measurement": "β-Arrestin Recruitment activity", "setting": "[15]", "value": 8, "unit": "%"}, {"measurement": "agonist activity, G-protein mediated signaling (Go BRET)", "setting": "[16]", "value": "potent and fully efficacious D3R-selective agonist"}, {"measurement": "EC50", "setting": "[17]", "value": 36, "unit": "nM"}, {"measurement": "inhibition at 10 µM", "setting": "[18]; read-out: inhibition of response elicited by serotonin", "value": 80, "unit": "%"}, {"measurement": "agonist activity, IP1 accumulation", "setting": "[18]; single high concentration of 10 μM", "value": "No agonist activity was found"}, {"measurement": "AMES Result", "setting": "[19]; TA100, S9 No", "value": "Negative"}, {"measurement": "AMES Result", "setting": "[19]; TA100, S9 Yes", "value": "Negative"}, {"measurement": "AMES Result", "setting": "[20]; TA98, S9 No", "value": "Negative"}, {"measurement": "AMES Result", "setting": "[20]; TA98, S9 Yes", "value": "Negative"}, {"measurement": "affinity in primary binding panel", "setting": "[21]", "value": "displays affinity for only the D3R, 5-HT1A, 5-HT2B, and Sigmal receptor"}, {"measurement": "D2 Emax", "setting": "[22]", "value": "Curve"}, {"measurement": "agonist activity, ERK phosphorylation", "setting": "[23]", "value": "potent and fully efficacious D3R-selective agonist"}]}]}
